Results from patent US20090068243A1, “Novel formulations for delivery of antiviral peptide therapeutics” (priority 2007, published 2009).

Experiments:
HIV-Res = format: cell-based, HIV-1; conditions: resistant viral isolate "Res"
Source text: Assessment of biological properties included measurement of antiviral activity against HIV-1 strains. In determining antiviral activity (e.g., one measure being the ability to inhibit transmission of HIV to a target cell) of the HIV fusion inhibitor peptides, an in vitro assay which has been shown, by data generated using peptides derived from the HR regions of HIV gp41, to be predictive of antiviral activity observed in vivo was used. […] These assays score for reduction of infectious virus titer employing the indicator cell lines MAGI or the CCR5 expressing derivative cMAGI. Both cell lines exploit the ability of HIV-1 tat to transactivate the expression of a β-galactosidase reporter gene driven by the HIV-LTR. The β-gal reporter has been modified to localize in the nucleus and can be detected with the X-gal substrate as intense nuclear staining within a few days of infection. […] The number of infected cells for each control and peptide dilution was determined with the CCD-imager, and then the IC50 was calculated (expressed in μg/ml).
Viruses resistant to the antiviral activity of a peptide consisting of a base sequence can be produced using standard laboratory methods. […] The cultures are maintained and monitored until syncytia are present. […] The second round of culture is maintained and monitored for presence of virus resistant to the antiviral activity of the peptide. […]

[1] = Helicity by circular dichroism (CD); format: physicochemical; conditions: usually percent helicity at 10 μM, 25° C.
Description: Assessment of biophysical parameters included measurement of helicity and thermal stability. Helicity was assessed by circular dichroism (“CD”) as follows. Briefly, CD spectra were obtained using a spectrometer equipped with a thermoelectric temperature controller. The spectra was obtained at 25° C. with 0.5 nanometer (nm) steps from 200 to 260 nm, with a 1.5 nm bandwith, and a typical averaging time of 4 seconds/step. After the cell/buffer blank was subtracted, spectra were smoothed using a third-order least-squares polynomial fit with a conservative window size to give random residuals. Raw ellipticity values were converted to mean residue ellipticity using standard methods, and plotted was the wavelength (from 200 to 260 nm) versus [θ]×10−3 (degrees cm^2/dmol). Percent helicity values were then calculated using standard methods (usually expressed as percent helicity at 10 μM, 25° C.). Assessment of thermal stability was performed by monitoring the change in CD signal at 222 nm as temperature was raised in 2° C. steps, with 1 minute equilibration times. The stability for each sample (e.g., HIV fusion inhibitor peptide), as represented by the Tm value, is the temperature corresponding to the maximum value of the first derivative of the thermal transition.

In the case of “Ac-TTWEAWDRAIAEYAARIEALLRALQEQQEKNEAALREL-NH2 [SEQ ID NO:9, TTWEAWDRAIAEYAARIEALLRALQEQQEKNEAALREL]”, the “Antiviral Activity (μg/ml) HIV-Res IC50” value (HIV-Res) is reported as under 0.10 µg/mL and the “Helicity (%)” value [1] is reported as 61%.
